Reference: patent US8901313B2, “6,5-heterocyclic propargylic alcohol compounds and uses therefor” (Genentech, Inc., priority 2011, dated 2014)

Molecular target: T1, nuclear factor-kappa B (NF-kB)-inducing kinase (NIK) (Homo sapiens, UniProt Q99558)
T1 construct: made in house; host or cells: baculovirus-infected insect cells
Assay: NIK Enzyme Inhibition Assay (Transcreener ADP assay)
Format: biochemical
Details: purified NIK 0.2-1 nM, 10 uM ATP, fluorescence polarization, Morrison's quadratic equation; read-out: inhibitory value (Ki) for NIK

T1 sequence (Q99558 whole entry): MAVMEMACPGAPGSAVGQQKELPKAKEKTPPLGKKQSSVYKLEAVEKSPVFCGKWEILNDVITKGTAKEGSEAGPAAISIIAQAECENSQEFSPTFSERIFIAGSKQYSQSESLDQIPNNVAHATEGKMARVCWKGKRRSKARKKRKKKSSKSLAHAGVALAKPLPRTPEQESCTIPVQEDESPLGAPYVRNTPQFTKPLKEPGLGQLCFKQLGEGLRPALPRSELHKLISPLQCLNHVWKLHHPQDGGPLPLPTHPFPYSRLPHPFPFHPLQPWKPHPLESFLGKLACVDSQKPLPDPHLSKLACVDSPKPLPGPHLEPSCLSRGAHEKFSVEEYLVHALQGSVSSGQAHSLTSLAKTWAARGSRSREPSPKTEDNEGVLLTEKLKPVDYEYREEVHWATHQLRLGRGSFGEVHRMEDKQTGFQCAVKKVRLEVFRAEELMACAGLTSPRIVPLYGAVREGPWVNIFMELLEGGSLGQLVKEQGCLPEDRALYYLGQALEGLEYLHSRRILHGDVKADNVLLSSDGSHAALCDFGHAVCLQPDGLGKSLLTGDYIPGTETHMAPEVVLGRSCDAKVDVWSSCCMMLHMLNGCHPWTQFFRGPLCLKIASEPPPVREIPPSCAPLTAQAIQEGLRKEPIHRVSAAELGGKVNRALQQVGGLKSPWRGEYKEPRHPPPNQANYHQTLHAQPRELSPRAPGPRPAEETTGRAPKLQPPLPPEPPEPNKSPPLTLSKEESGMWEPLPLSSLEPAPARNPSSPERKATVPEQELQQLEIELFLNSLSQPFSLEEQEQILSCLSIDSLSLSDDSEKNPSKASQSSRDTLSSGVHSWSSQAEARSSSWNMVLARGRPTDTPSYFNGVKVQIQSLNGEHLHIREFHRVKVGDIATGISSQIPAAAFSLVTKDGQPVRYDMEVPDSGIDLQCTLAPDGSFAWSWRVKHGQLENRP

Ki	Structure (SMILES)
1 nM	CN(C)C(=O)c1nn(-c2ccnc(N)n2)c2cc(C#CC(C)(O)c3cc(CO)on3)ccc12 (stereo not drawn) [Example T1.1-26, 1-(2-aminopyrimidin-4-yl)-6-[3-hydroxy-3-[5-(hydroxymethyl)isoxazol-3-yl]but-1-ynyl]-N,N-dimethyl-indazole-3-carboxamide]
2 nM	Cc1cc(C(C)(O)C#Cc2ccc3nc(OCCO)n(-c4ccnc(N)n4)c3c2)no1 (stereo not drawn) [Example T1.1-27, 4-[3-(2-aminopyrimidin-4-yl)-2-(2-hydroxyethoxy)benzimidazol-5-yl]-2-(5-methylisoxazol-3-yl)but-3-yn-2-ol]
2 nM	CCOc1nc2ccc(C#CC3(O)CCn4ccnc43)cc2n1-c1ccnc(N)n1 (stereo not drawn) [Example T1.1-28, 7-[2-[3-(2-aminopyrimidin-4-yl)-2-ethoxy-benzimidazol-5-yl]ethynyl]-5,6-dihydropyrrolo[1,2-a]imidazol-7-ol]
2 nM	Cc1cc(C(C)(O)C#Cc2ccc3nc(OCC(F)(F)F)n(-c4ccnc(N)n4)c3c2)no1 (stereo not drawn) [Example T1.1-29, 4-[3-(2-aminopyrimidin-4-yl)-2-(2,2,2-trifluoroethoxy)benzimidazol-5-yl]-2-(5-methylisoxazol-3-yl) but-3-yn-2-ol]
2 nM	Cc1nc(C(C)(O)C#Cc2ccc3c(C(=O)N(C)C)nn(-c4ccnc(N)n4)c3c2)no1 (stereo not drawn) [Example T1.1-30, 1-(2-aminopyrimidin-4-yl)-6-[3-hydroxy-3-(5-methyl-1,2,4-oxadiazol-3-yl)but-1-ynyl]-N,N-dimethyl-indazole-3-carboxamide]
2 nM	Cc1nc([C@](C)(O)C#Cc2ccc3c(c2)n(-c2ccnc(N)n2)c(=O)n3C)no1 [Example T1.1-31, 3-(2-aminopyrimidin-4-yl)-5-[(3R)-3-hydroxy-3-(5-methyl-1,2,4-oxadiazol-3-yl)but-1-ynyl]-1-methyl-benzimidazol-2-one]
2 nM	Cc1cc(C(C)(O)C#Cc2ccc3c(c2)n(-c2ccnc(N)n2)c(=O)n3CC2CC2)no1 (stereo not drawn) [Example T1.1-32, 3-(2-aminopyrimidin-4-yl)-1-(cyclopropylmethyl)-5-[3-hydroxy-3-(5-methylisoxazol-3-yl)but-1-ynyl] benzimidazol-2-one]
2 nM	Cc1nn(-c2ccnc(N)n2)c2cc(C#CC(C)(O)c3cc(CO)on3)ccc12 (stereo not drawn) [Example T1.1-33, 4-[1-(2-aminopyrimidin-4-yl)-3-methyl-indazol-6-yl]-2-[5-(hydroxy-methyl)isoxazol-3-yl]but-3-yn-2-ol]
2 nM	Cc1nc([C@](C)(O)C#Cc2ccc3c(C(=O)N4CC(O)C4)nn(-c4ccnc(N)n4)c3c2)no1 [Example T1.1-34, [1-(2-aminopyrimidin-4-yl)-6-[(3R)-3-hydroxy-3-(5-methyl-1,2,4-oxadiazol-3-yl)but-1-ynyl]indazol-3-yl]-(3-hydroxyazetidin-1-yl)methanone]
2 nM	Cc1nc([C@](C)(O)C#Cc2ccc3c(C(C)(C)F)nn(-c4ccnc(N)n4)c3c2)no1 [Example T1.1-35, (2R)-4-[1-(2-aminopyrimidin-4-yl)-3-(1-fluoro-1-methyl-ethyl)indazol-6-yl]-2-(5-methyl-1,2,4-oxadiazol-3-yl) but-3-yn-2-ol]
2 nM	Cc1nc(C(C)(O)C#Cc2ccc3c(CC(C)(O)C(F)F)nn(-c4ccnc(N)n4)c3c2)no1 (stereo not drawn) [Example T1.1-36, 3-[1-(2-aminopyrimidin-4-yl)-6-[3-hydroxy-3-(5-methyl-1,2,4-oxadiazol-3-yl)but-1-ynyl]indazol-3-yl]-1,1-difluoro-2-methyl-propan-2-ol]
2 nM	Cc1cc([C@](C)(O)C#Cc2ccc3c(CN4CCOCC4)nn(-c4ccnc(N)n4)c3c2)no1 [Example T1.1-38, (2R)-4-[1-(2-aminopyrimidin-4-yl)-3-(morpholinomethyl)indazol-6-yl]-2-(5-methylisoxazol-3-yl)but-3-yn-2-ol]
2 nM	CN(C)C(=O)c1nn(-c2ccnc(N)n2)c2cc(C#CC3(O)CCn4ccnc43)ccc12 (stereo not drawn) [Example T1.1-39, 1-(2-aminopyrimidin-4-yl)-6-[2-(7-hydroxy-5,6-dihydropyrrolo[1,2-a]imidazol-7-yl)ethynyl]-N,N-dimethyl-indazole-3-carboxamide]
2 nM	Cc1nc([C@](C)(O)C#Cc2ccc3c(CO)nn(-c4ccnc(N)n4)c3c2)no1 [Example T1.1-40, (2R)-4-[1-(2-aminopyrimidin-4-yl)-3-(hydroxymethyl)indazol-6-yl]-2-(5-methyl-1,2,4-oxadiazol-3-yl)but-3-yn-2-ol]
2 nM	Nc1nccc(-n2nc(C(=O)N3CCOCC3)c3ccc(C#CC4(O)CCn5ccnc54)cc32)n1 (stereo not drawn) [Example T1.1-41, [1-(2-aminopyrimidin-4-yl)-6-[2-(7-hydroxy-5,6-dihydropyrrolo[1,2-a]imidazol-7-yl)ethynyl]indazol-3-yl]-morpholino-methanone]
3 nM	Cc1cc(C(C)(O)C#Cc2ccc3nc(OC4CCOCC4)n(-c4ccnc(N)n4)c3c2)no1 (stereo not drawn) [Example T1.1-42, 4-[3-(2-aminopyrimidin-4-yl)-2-tetrahydropyran-4-yloxy-benzimidazol-5-yl]-2-(5-methylisoxazol-3-yl)but-3-yn-2-ol]
3 nM	CC(O)(C#Cc1ccc2c(CN3CC(F)(F)C3)nn(-c3ccnc(N)n3)c2c1)c1ncccn1 (stereo not drawn) [Example T1.1-43, 4-[1-(2-aminopyrimidin-4-yl)-3-[(3,3-difluoroazetidin-1-yl)methyl]indazol-6-yl]-2-pyrimidin-2-yl-but-3-yn-2-ol]

Ki	Structure (SMILES)
3 nM	COCCOc1nc2ccc(C#C[C@@](C)(O)c3cc(C)on3)cc2n1-c1ccnc(N)n1 [Example T1.1-44, (2R)-4-[3-(2-aminopyrimidin-4-yl)-2-(2-methoxyethoxy)benzimidazol-5-yl]-2-(5-methylisoxazol-3-yl)but-3-yn-2-ol]
3 nM	Cc1nn(-c2ccnc(N)n2)c2cc(C#CC(C)(O)c3nc[nH]n3)ccc12 (stereo not drawn) [Example T1.1-45, 4-[1-(2-aminopyrimidin-4-yl)-3-methyl-indazol-6-yl]-2-(1H-1,2,4-triazol-3-yl)but-3-yn-2-ol]
3 nM	CC(O)(C#Cc1ccc2nc(OCC(F)(F)F)n(-c3ccnc(N)n3)c2c1)c1ncccn1 (stereo not drawn) [Example T1.1-46, 4-[3-(2-aminopyrimidin-4-yl)-2-(2,2,2-trifluoroethoxy)benzimidazol-5-yl]-2-pyrimidin-2-yl-but-3-yn-2-ol]
3 nM	Cc1nc([C@](C)(O)C#Cc2ccc3nc(OC4COC4)n(-c4ccnc(N)n4)c3c2)no1 [Example T1.1-47, (2R)-4-[3-(2-aminopyrimidin-4-yl)-2-(oxetan-3-yloxy)benzimidazol-5-yl]-2-(5-methyl-1,2,4-oxadiazol-3-yl)but-3-yn-2-ol]
3 nM	CCOc1nc2ccc(C#CC(C)(O)c3ncccn3)cc2n1-c1ccnc(N)n1 (stereo not drawn) [Example T1.1-48, 4-[3-(2-aminopyrimidin-4-yl)-2-ethoxy-benzimidazol-5-yl]-2-pyrimidin-2-yl-but-3-yn-2-ol]
4 nM	CC(O)(C#Cc1ccc2c(CF)nn(-c3ccnc(N)n3)c2c1)c1ncccn1 (stereo not drawn) [Example T1.1-49, 4-[1-(2-aminopyrimidin-4-yl)-3-(fluoromethyl)indazol-6-yl]-2-pyrimidin-2-yl-but-3-yn-2-ol]
4 nM	Cc1nc([C@](C)(O)C#Cc2ccc3c(C(C)(C)O)nn(-c4nc(N)ncc4Cl)c3c2)no1 [Example T1.1-50, (2R)-4-[1-(2-amino-5-chloro-pyrimidin-4-yl)-3-(1-hydroxy-1-methyl-ethyl)indazol-6-yl]-2-(5-methyl-1,2,4-oxadiazol-3-yl) but-3-yn-2-ol]
4 nM	COCCOc1nc2ccc(C#C[C@@](C)(O)c3noc(C)n3)cc2n1-c1ccnc(N)n1 [Example T1.1-51, (2R)-4-[3-(2-aminopyrimidin-4-yl)-2-(2-methoxyethoxy)benzimidazol-5-yl]-2-(5-methyl-1,2,4-oxadiazol-3-yl)but-3-yn-2-ol]
4 nM	Cc1nn(-c2ccnc(N)n2)c2cc(C#CC(C)(O)CF)ccc12 (stereo not drawn) [Example T1.1-52, 4-[1-(2-aminopyrimidin-4-yl)-3-methyl-indazol-6-yl]-1-fluoro-2-methyl-but-3-yn-2-ol]
4 nM	CC(O)(C#Cc1ccc2c(C(=O)N3CCOCC3)nn(-c3ccnc(N)n3)c2c1)c1ncccn1 (stereo not drawn) [Example T1.1-54, [1-(2-aminopyrimidin-4-yl)-6-(3-hydroxy-3-pyrimidin-2-yl-but-1-ynyl)indazol-3-yl]-morpholino-methanone]
4 nM	CC(=O)N1CC(Oc2nc3ccc(C#CC(C)(O)c4cc(C)on4)cc3n2-c2ccnc(N)n2)C1 (stereo not drawn) [Example T1.1-55, 1-[3-[1-(2-aminopyrimidin-4-yl)-6-[3-hydroxy-3-(5-methylisoxazol-3-yl)but-1-ynyl]benzimidazol-2-yl]oxyazetidin-1-yl]ethanone]
4 nM	CC(C)(O)c1nn(-c2ccnc(N)n2)c2cc(C#CC(C)(O)c3ccccn3)ccc12 (stereo not drawn) [Example T1.1-56, 4-[1-(2-aminopyrimidin-4-yl)-3-(1-hydroxy-1-methyl-ethyl)indazol-6-yl]-2-(2-pyridyl)but-3-yn-2-ol]
5 nM	CC(C)(O)c1nn(-c2ccnc(N)n2)c2cc(C#CC(C)(O)c3ncccn3)ccc12 (stereo not drawn) [Example T1.1-57, 4-[1-(2-aminopyrimidin-4-yl)-3-(1-hydroxy-1-methyl-ethyl)indazol-6-yl]-2-pyrimidin-2-yl-but-3-yn-2-ol]
5 nM	COCCOc1nc2ccc(C#CC(C)(O)c3ncccn3)cc2n1-c1ccnc(N)n1 (stereo not drawn) [Example T1.1-58, 4-[3-(2-aminopyrimidin-4-yl)-2-(2-methoxyethoxy)benzimidazol-5-yl]-2-pyrimidin-2-yl-but-3-yn-2-ol]
5 nM	Cc1cc(C(C)(O)C#Cc2ccc3c(C(O)(C4CCOCC4)C4CC4)nn(-c4ccnc(N)n4)c3c2)no1 (stereo not drawn) [Example T1.1-59, 4-[1-(2-aminopyrimidin-4-yl)-3-(cyclopropyl-hydroxy-tetrahydropyran-4-yl-methyl)indazol-6-yl]-2-(5-methyl-isoxazol-3-yl)but-3-yn-2-ol]
6 nM	CC(O)(C#Cc1ccc2nc(OCCO)n(-c3ccnc(N)n3)c2c1)c1ncccn1 (stereo not drawn) [Example T1.1-60, 4-[3-(2-aminopyrimidin-4-yl)-2-(2-hydroxyethoxy)benzimidazol-5-yl]-2-pyrimidin-2-yl-but-3-yn-2-ol]
